In patent publication US20140288073A1, “Method of Treating Gastrointestinal Stromal Tumors” (NOVARTIS AG, priority 2011, published 2014):
Entries after “also recorded” stand apart in the source; their conditions may differ.

What was measured:
GIST882 cells = experiment: CellTiter-Glo cell viability/proliferation assay, GIST882; type: cell-based, human; details: for Inhibition of proliferation as single agent: GIST882 (K642E mutant KIT), Example 2; for Synergy Score for inhibition of GIST cell proliferation / Combination Index for 70% inhibition of GIST cell proliferation: Imatinib combined with the compound
Text: (§1) GIST882, GIST48 and GIST430 cell lines were obtained from the Brigham and Women's Hospital, Boston, Mass. GIST882 was established from an untreated human GIST with a homozygous missense mutation in KIT exon 13, encoding a […] mutant KIT protein ([…], et al. Oncogene 2001; 20: 5054-5058). […] GIST48 has a primary homozygous exon 11 missense mutation […]) and a secondary heterozygous exon 17 missense mutation […]). GIST430 has a primary heterozygous exon 11 in-frame deletion and a secondary heterozygous exon 13 missense mutation (V654A). GIST-T1 was obtained from Kochi Medical School, Kochi, Japan. It was established from a metastatic human GIST with a heterozygous […] bases in exon 11 of KIT (Taguchi T, Sonobe H, Toyonaga S, et al. Lab Invest 2002; 82: 663-665). […] Cell proliferation was measured using the CellTiter-Glo luminescent cell viability assay (Promega catalog #G755B) and Victor4 plate reader (Perkin Elmer). Synergy scores and CI70 calculations were determined as described elsewhere (Lehar J, Krueger A S, et al. Nat Biotechnol 2009; 27: 659-666).

GIST-T1 cells = experiment: CellTiter-Glo cell viability/proliferation assay, GIST-T1; type: cell-based, human; details: for Inhibition of proliferation as single agent: GIST-T1 (ex11del KIT), Example 2; for Combination Index for 70% inhibition of GIST cell proliferation / Synergy Score for inhibition of GIST cell proliferation: Imatinib combined with the compound
Text: as §1

GIST48 cells = experiment: CellTiter-Glo cell viability/proliferation assay, GIST48; type: cell-based, human; details: for Inhibition of proliferation as single agent: Example 2; for Combination Index for 70% inhibition of GIST cell proliferation / Synergy Score for inhibition of GIST cell proliferation: Imatinib combined with the compound
Text: as §1

GIST430 cells = experiment: CellTiter-Glo cell viability/proliferation assay, GIST430; type: cell-based, human; details: for Inhibition of proliferation as single agent: GIST430 (ex11del/V654A KIT), Example 2; for Growth suppression in combination with imatinib versus single agent treatment / Combination Index for 70% inhibition of GIST cell proliferation / Synergy Score for inhibition of GIST cell proliferation: GIST430; for Combination Index for 70% inhibition of GIST cell proliferation / Synergy Score for inhibition of GIST cell proliferation: Imatinib combined with the compound
Text: as §1

GIST cell lines = experiment: Combination effect on growth of GIST cell lines (FIG. 6); type: cell-based, human; details: combination with nilotinib, presence of 20 ng/ml FGF2, monophosphate
Experimental: FIG. 6: Combination effect of nilotinib plus BGJ398 in GIST cell lines in the presence of 20 ng/ml FGF2.
10,000 cells suspended in 80 μl media were seeded into each well of a 96-well cell-culture plate and grown for 24 hours prior to treatment. 10 μl of 60 μg/mL heparin (Sigma Catalog # H3149) was added to each well, and then 10 μl of 50 μg/mL FGF2 (R&D Catalog #233-FB/CF) or media was added to each well of the plates. 10 μl of each of the compound dilutions described above and 10 μl of media were added to wells to a final volume 120 μl such that all pair-wise combinations as well as the single agents were represented. Cells were incubated for 72 hrs at 37° C. in a 5% CO2 incubator following compound addition. Cell proliferation was measured using the CellTiter-Glo luminescent cell viability assay (Promega catalog #G755B) and Victor4 plate reader (Perkin Elmer). Synergy scores and CI70 calculations were determined as described elsewhere (Lehar J, Krueger A S, et al. Nat Biotechnol 2009; 27: 659-666).

GIST [1] = details: cited from earlier work
GIST [2] = details: cited from earlier work; remark: listed apart in the source
[3] = GIST882, absence of FGF2, 3 days
[4] = GIST882, presence of added FGF2, 3 days
[5] = GIST-T1, absence of FGF2, 3 days
[6] = GIST-T1, presence of added FGF2, 3 days
[7] = GIST882, combination with imatinib

Row | Structure (SMILES) | Inhibition of proliferation as single agent (GIST882 cells) | Synergy Score for inhibition of GIST cell proliferation (GIST882 cells; GIST882) | Inhibition of proliferation as single agent (GIST-T1 cells) | Combination Index for 70% inhibition of GIST cell proliferation (GIST-T1 cells; GIST-T1) | Synergy Score for inhibition of GIST cell proliferation (GIST-T1 cells; GIST-T1) | Inhibition of proliferation as single agent (GIST48 cells) | Combination Index for 70% inhibition of GIST cell proliferation (GIST48 cells) | Synergy Score for inhibition of GIST cell proliferation (GIST48 cells) | Inhibition of proliferation as single agent (GIST430 cells) | Growth suppression in combination with imatinib versus single agent treatment (GIST430 cells) | Combination Index for 70% inhibition of GIST cell proliferation (GIST430 cells) | Synergy Score for inhibition of GIST cell proliferation (GIST430 cells) | Growth inhibition as single agent (GIST882 cells; [3]) | Growth inhibition as single agent (GIST882 cells; [4]) | Growth inhibition as single agent (GIST-T1 cells; [5]) | Growth inhibition as single agent (GIST-T1 cells; [6]) | Growth suppression in combination with imatinib versus single agent treatment (GIST882 cells; [7]) | Combination Index for 70% inhibition of GIST cell proliferation (GIST882 cells; GIST882) | also measured
1 | Cc1nc(NC(=O)N2CCC[C@H]2C(N)=O)sc1-c1ccnc(C(C)(C)C(F)(F)F)c1 [COMPOUND D, (S)-pyrrolidine-1,2-dicarboxylic acid 2-amide 1-({4-methyl-5-[2-(2,2,2-trifluoro-1,1-dimethyl-ethyl)-pyridin-4-yl]-thiazol-2-yl}-amide)] | little or no effect | 0.46 | little or no effect | 0.988 | 1.06 | little or no effect | 1.18 | 1.98 | little or no effect | growth suppression was observed in excess of the percent inhibition achieved by imatinib or COMPOUND D single agent treatment | 0.791 | 2.04 |  |  |  |  |  |  | Growth suppression in combination with imatinib versus single agent treatment (GIST48 cells; combination with imatinib): growth suppression was observed in excess of the percent inhibition achieved by imatinib or COMPOUND D single agent treatment
2 | CCN1CCN(c2ccc(Nc3cc(N(C)C(=O)Nc4c(Cl)c(OC)cc(OC)c4Cl)ncn3)cc2)CC1.O=P(O)(O)O [BGJ398, 3-(2,6-dichloro-3,5-dimethoxy-phenyl)-1-{6-[4-(4-ethyl-piperazin-1-yl)-phenylamino]-pyrimid-4-yl}-1-methyl-urea monophosphate] |  |  |  |  |  |  |  |  |  |  |  |  | did not significantly affect the viability | did not significantly affect the viability | did not significantly affect the viability | did not significantly affect the viability |  |  | Combination effect on growth inhibition (GIST882 cells; GIST882, combination with imatinib, presence of FGF2 (20 ng/ml)): strong combination effects; Combination effect on growth inhibition (GIST-T1 cells; GIST-T1, combination with imatinib, presence of FGF2 (20 ng/ml)): strong combination effects; Combination effect on growth inhibition (GIST cell lines): strong combination effects; also recorded: synergy
3 | Cn1c(=O)n(-c2ccc(C(C)(C)C#N)cc2)c2c3cc(-c4cnc5ccccc5c4)ccc3ncc21 [COMPOUND A, 2-methyl-2-[4-(3-methyl-2-oxo-8-quinolin-3-yl-2,3-dihydro-imidazo[4,5-c]quinolin-1-yl)-phenyl]-propionitrile] | inhibited the proliferation of all four cell-lines at low micromolar concentrations | 5.07 | inhibited the proliferation of all four cell-lines at low micromolar concentrations | 0.493 | 1.10 | inhibited the proliferation of all four cell-lines at low micromolar concentrations | 1.25 | 0.38 | inhibited the proliferation of all four cell-lines at low micromolar concentrations | growth suppression was observed in excess of the percent inhibition achieved by imatinib or COMPOUND A single agent treatment | 0.260 | 2.06 |  |  |  |  | growth suppression was observed in excess of the percent inhibition achieved by imatinib or COMPOUND A single agent treatment | 0.194 | 
4 | Cc1cn(-c2cc(NC(=O)c3ccc(C)c(Nc4nccc(-c5cccnc5)n4)c3)cc(C(F)(F)F)c2)cn1 [nilotinib, 4-methyl-3-[[4-(3-pyridinyl)-2-pyrimidinyl]amino]-N-[5-(4-methyl-1H-imidazol-1-yl)-3-(trifluoromethyl)phenyl]benzamide, reference compound] |  |  |  |  |  |  |  |  |  |  |  |  | sensitive |  | sensitive |  |  |  | GI50 shift in the presence of added FGF2 (GIST882 cells; GIST882, 3 days, with vs without added FGF2 (50, 25, 12 ng/ml)): greater than 10 fold; GI50 shift in the presence of added FGF2 (GIST-T1 cells; GIST-T1, 3 days, with vs without added FGF2 (50, 25, 12 ng/ml)): greater than 10 fold
5 | Cc1ccc(NC(=O)c2ccc(CN3CCN(C)CC3)cc2)cc1Nc1nccc(-c2cccnc2)n1 [imatinib, 4-(4-methylpiperazin-1-ylmethyl)-N-[4-methyl-3-(4-(pyridin-3-yl)pyrimidin-2-ylamino)phenyl]-benzamide, reference compound] | potently inhibited |  | potently inhibited |  |  | imatinib resistant |  |  | potently inhibited |  |  |  | efficacious | less sensitive | efficacious | less sensitive |  |  | Progression-free survival (PFS) (GIST [1]; 800 mg/day compared to 400 mg/day, advanced GIST harboring KIT exon 9 mutations): significantly improves; Patients progressing after 2 years of first line therapy (GIST [1]; advanced GIST, first line therapy): more than 50%; Recurrence-free survival (RFS) (GIST [2]; 400 mg/day for 12 months compared with placebo, after complete resection (ACOSOGZ9001)): significantly prolonged; RFS and overall survival (GIST [2]; 36 months versus 12 months adjuvant therapy, 400 mg once daily (SSGXVIII/AIO)): superior to 12 months
6 | Nc1cc(C(F)(F)F)c(-c2cc(N3CCOCC3)nc(N3CCOCC3)n2)cn1 [COMPOUND C, 5-(2,6-di-morpholin-4-yl-pyrimidin-4-yl)-4-trifluoromethyl-pyridin-2-ylamine] | inhibited the proliferation of all four cell-lines at low micromolar concentrations | 1.90 | inhibited the proliferation of all four cell-lines at low micromolar concentrations | 0.782 | 1.29 | inhibited the proliferation of all four cell-lines at low micromolar concentrations | 0.716 | 1.20 | inhibited the proliferation of all four cell-lines at low micromolar concentrations | growth suppression was observed in excess of the percent inhibition achieved by imatinib or COMPOUND C single agent treatment | 0.252 | 1.96 |  |  |  |  | growth suppression was observed in excess of the percent inhibition achieved by imatinib or COMPOUND C single agent treatment | 0.597 | 
